B1: unlabeled IgE-Fc: unlabeled wild type human IgE-Fc (Cε3-Cε4) used as competitor (protein, listed as Homo sapiens)
chain: ADPCADSNPRGVSAYLSRPSPFDLFIRKSPTITCLVVDLAPSKGTVNLTWSRASGKPVNHSTRKEEKQRNGTLTVTSTLPVGTRDWIEGETYQCRVTHPHLPRALMRSTTKTSGPRAAPEVYAFATPEWPGSRDKRTLACLIQNFMPEDISVQWLHNEVQLPDARHSTTQPRKTKGSGFFVFSRLEVTRAEWEQKDEFICRAVHEAASPSQTVQRAVSVNPGK
modifications: PEPTIDE (1)..(223) Wildtype IgE-Fc (C3-C4)

How the values were obtained:
transthyretin (TTR) = transthyretin (TTR) (Homo sapiens, UniProt P02766); settings: in vitro; cited from earlier work
[1] = molecular target: mutant hormone / mutant receptor (hGH/hGHbp) (Homo sapiens, UniProt P01241+P10912, T201G/W122G); settings: at a concentration of 100 μM; cited from earlier work
inflammatory response = settings: mouse model of acute inflammation; cited from earlier work
LFA-1/ICAM-1 interaction = LFA-1/ICAM-1 interaction (Homo sapiens, UniProt P05107+P20701); settings: solid-phase binding assay stated for LFA703; cited from earlier work
[2] = molecular target: T1, 488-labeled 367C IgE-Fc bound to FcεRIα (Homo sapiens, UniProt P01854+P12319, K248C); test: fluorescence assay in competitive inhibitor format; assay type: binding
T1 construct: starts at amino acid 1 and ends at amino acid 176 of said FcεRIα, using the numbering −25 to 232; made in house; host or cells: IgE-Fc: insect cells (Trichoplusia ni)
Experimental: Fluorescence Measurement. Samples were monitored by fluorescence using a Synergy 4 Fluorometer (BioTek) in black 96-well Costar fluorescence plates (Corning). Samples were prepared manually by mixing Alexa-488-labelled 367C IgE-Fc in 0.1% Tween-20 and 100 nM BSA, with buffered 50 mM Tris and 50 mM NaCl, pH 8. Fluorescence was measured using an excitation wavelength of 488 nm and emission was monitored at 520 nm. The read-type for typical measurements was Endpoint. All measurements were recorded in duplicate.

FcεRIα = molecular target: T2, FcεRIα (Homo sapiens, UniProt P12319); settings: natural IgE-receptor interaction; read-out: affinity of the natural receptor interaction; cited from earlier work
T2 sequence (P12319 26-257): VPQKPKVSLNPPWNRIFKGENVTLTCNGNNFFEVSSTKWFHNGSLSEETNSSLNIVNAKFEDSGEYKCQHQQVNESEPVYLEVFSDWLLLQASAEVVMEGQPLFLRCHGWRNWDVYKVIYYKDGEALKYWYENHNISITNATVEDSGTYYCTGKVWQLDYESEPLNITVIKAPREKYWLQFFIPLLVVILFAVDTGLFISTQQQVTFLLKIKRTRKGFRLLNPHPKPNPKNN

Row | Molecule | inhibition of TTR amyloid fibril formation (transthyretin (TTR)) | also measured
1 | O=C(O)Cc1ccccc1Nc1c(Cl)cccc1Cl [diclofenac] | strongly inhibited | –
2 | O=C(O)c1ccccc1Nc1ccccc1C(F)(F)F [o-FLU, ortho-trifluoromethylphenyl anthranilic acid] | potent inhibitors | –
3 | O=C(O)c1cccc2c1Oc1c(C(=O)O)cccc1N2c1cccc(C(F)(F)F)c1 [PHENOX, N-(meta-trifluoromethylphenyl)-phenoxazine-4,6-dicarboxylic acid] | potent inhibitors | –
4 | CC(C(=O)O)c1ccc(-c2ccccc2)c(F)c1 (stereo not drawn) [flurbiprofen] | strongly inhibited | –
5 | Oc1ccc(C=Cc2cc(O)cc(O)c2)cc1 [resveratrol] | strongly inhibited | –
6 | Clc1ccc2nc(C(Cl)(Cl)Cl)[nH]c2c1 [5-Chloro-2-trichloromethyl benzimidazole] | – | increase in binding affinity of the mutant hormone to the mutant receptor [1]: more than 1000 fold
7 | CC[C@H](C)C(=O)O[C@H]1C[C@@H](C)C=C2C=C[C@H](C)[C@H](CC[C@H]3C[C@@H](O)CC(=O)N3Cc3ccc4c(CO)c(OC)ccc4c3)[C@H]21 [LFA703] | – | inflammatory response (inflammatory response): suppress the inflammatory response; IC50 (LFA-1/ICAM-1 interaction): 0.2 µM
8 | O=C(O)c1ccccc1Nc1cccc(C(F)(F)F)c1 [flufenamic acid] | potently inhibit | –
9 | B1 | – | direct effect on fluorescence of the dye-labeled IgE-Fc ([2]; control in the absence of FcεRIα): no significant effect; fluorescence recovery / competition of receptor binding ([2]; in the presence of FcεRIα): completely competed; Kd (FcεRIα): ~0.001 µM

From patent US8927695B2, “Protein-based assays for screening of the IgE-receptor interaction” (The Board of Trustees of the Leland Stanford Junior …, priority 2010, dated 2015)
